Measured values published in patent US20050197350A1, “Novel quinoline, tetrahydroquinazoline, and pyrimidine derivatives and methods of treatment related to the use thereof” (TAISHO PHARMACEUTICAL CO., LTD., priority 2003, published 2005).

System: MCH receptors
Assay: MCH receptor activity class (method not given)
[1] = MCH receptor activity class 1-3 (percent of control at 10^-7 M or IC50)
[2] = class by percent of control at 10^-7 M or IC50
[3] = activity class 1-3: percent of control at 10^-7 M or IC50
[4] = class by percent of control at 10^−7 M or IC50
[5] = MCH receptor, class by percent of control at 10^-7 M or IC50
[6] = class 1-3 by percent of control at 10^-7 M or IC50

Row | Structure (SMILES) | class [2] | also measured
1 | CCCCc1ccc(NC(=S)N[C@H]2CC[C@@H](Nc3nccc(N(C)C)n3)CC2)c(C)c1 [compound 2358] | – | class [1]: 3 (Class 3 The value of percent of control at 10^−7 M was more than 60% or the value of IC50 was more than 200 nM.)
2 | COc1ccc(C(=O)N[C@H]2CC[C@@H](Nc3cc(N(C)C)c4ccccc4n3)CC2)cc1OCc1ccccc1 [compound 750] | 2 (Class 2: The value of percent of control at 10^−7 M was from 40% to 60% or the value of IC′50 was from 50 nM to 200 nM.) | –
3 | Cc1cc(Br)cc(C)c1NC(=O)N[C@H]1CC[C@@H](Nc2cc(N(C)C)c3ccccc3n2)CC1 [compound 2120] | 1 (Class 1: The value of percent of control at 10^−7 M was less than 40% or the value of IC50 was less than 50 nM.) | –
4 | CC(C)c1ccccc1NC(=S)N[C@H]1CC[C@@H](Nc2nccc(N(C)C)n2)CC1 [compound 2326] | – | class [1]: 3 (Class 3 The value of percent of control at 10^−7 M was more than 60% or the value of IC50 was more than 200 nM.)
5 | Cc1ccnc(SCC(=O)N[C@H]2CC[C@@H](Nc3cc(N(C)C)c4ccccc4n3)CC2)n1 [compound 696] | 3 (Class 3 The value of percent of control at 10^−7 M was more than 60% or the value of IC50 was more than 200 nM.) | –
6 | CN(C)c1nc(N[C@H]2CC[C@@H](CNC(=O)OCc3ccccc3Cl)CC2)nc2c1CCCC2 [compound 1616] | – | class [3]: 3 (Class 3 The value of percent of control at 10^−7 M was more than 60% or the value of IC50 was more than 200 nM.)
7 | Cc1cc(N(C)C)nc(N[C@H]2CC[C@@H](C(=O)NCc3cc(F)ccc3F)CC2)n1 [compound 2819, cis-N-(2,5-difluorobenzyl)-4-{[4-(dimethylamino)-6-methylpyrimidin-2-yl]amino}cyclohexanecarboxamide] | – | class [4]: 1 (Class 1: The value of percent of control at 10^−7 M was less than 40% or the value of IC50 was less than 50 nM.)
8 | Cc1c(C)c(C)c(CNC2CCC(Nc3cc(N(C)C)c4ccccc4n3)CC2)c(C)c1C (centres unmarked) [compound 1451] | 3 (Class 3 The value of percent of control at 10^−7 M was more than 60% or the value of IC50 was more than 200 nM.) | –
9 | CCCNC(=S)N[C@H]1CC[C@@H](Nc2nc3c(c(N(C)C)n2)CCCC3)CC1 [compound 1956] | – | class [5]: 3 (Class 3 The value of percent of control at 10^−7 M was more than 60% or the value of IC50 was more than 200 nM.)
10 | CN(C)c1nc(N[C@H]2CC[C@@H](NC(=O)OCC(Cl)(Cl)Cl)CC2)nc2c1CCCC2 [compound 1598] | – | class [3]: 3 (Class 3 The value of percent of control at 10^−7 M was more than 60% or the value of IC50 was more than 200 nM.)
11 | CN(C)c1cc(N[C@H]2CC[C@@H](NC(=O)Nc3cccc4ccccc34)CC2)nc2ccccc12 [compound 2130, N-(cis-4-{[4-(dimethylamino)quinolin-2-yl]amino}cyclohexyl)-N′-1-naphthylurea] | 1 (Class 1: The value of percent of control at 10^−7 M was less than 40% or the value of IC50 was less than 50 nM.) | –
12 | CN(C)c1ccnc(N[C@H]2CC[C@@H](NC(=O)c3cccc([N+](=O)[O-])c3)CC2)n1 [compound 262, N-(cis-4-{[4-(dimethylamino)pyrimidin-2-yl]amino}cyclohexyl)-3-nitrobenzamide] | 1 (Class 1: The value of percent of control at 10^−7 M was less than 40% or the value of IC50 was less than 50 nM.) | –
13 | C[C@H](C(=O)N[C@H]1CC[C@@H](Nc2nc3c(c(N(C)C)n2)CCCC3)CC1)c1cccc(C(=O)c2ccccc2)c1 [compound 1014] | – | class (activity class per percent of control at 10^-7 M or IC50): 3 (Class 3 The value of percent of control at 10^−7 M was more than 60% or the value of IC50 was more than 200 nM.)
14 | CN(C)c1nc(N[C@H]2CC[C@@H](NC(=O)Nc3ccccc3-c3ccccc3)CC2)nc2c1CCCC2 [compound 1694] | – | class [3]: 3 (Class 3 The value of percent of control at 10^−7 M was more than 60% or the value of IC50 was more than 200 nM.)
15 | CN(C)c1cc(N[C@H]2CC[C@@H](NC(=O)C(c3ccc(Cl)cc3)c3ccc(Cl)cc3)CC2)nc2ccccc12 [compound 686] | 2 (Class 2: The value of percent of control at 10^−7 M was from 40% to 60% or the value of IC′50 was from 50 nM to 200 nM.) | –
16 | COc1ccccc1Oc1ncccc1C(=O)N[C@H]1CC[C@@H](Nc2ncc(C)c(N(C)C)n2)CC1 [compound 2890, N-(cis-4-{[4-(dimethylamino)-5-methylpyrimidin-2-yl]amino}cyclohexyl)-2-(2-methoxyphenoxy)nicotinamide] | – | class [4]: 1 (Class 1: The value of percent of control at 10^−7 M was less than 40% or the value of IC50 was less than 50 nM.)
17 | CN(C)c1nc(N[C@H]2CC[C@@H](NCc3ccc(F)c(Cl)c3)CC2)nc2c1CCCC2 [compound 1363] | 3 (Class 3 The value of percent of control at 10^−7 M was more than 60% or the value of IC50 was more than 200 nM.) | –
18 | CC(C)Oc1ccc(CNC[C@H]2CC[C@@H](Nc3nc4c(c(N(C)C)n3)CCCC4)CC2)cc1 [compound 1398] | 3 (Class 3 The value of percent of control at 10^−7 M was more than 60% or the value of IC50 was more than 200 nM.) | –
19 | CN(C)c1nc(N[C@H]2CC[C@@H](CNC(=O)Oc3ccccc3)CC2)nc2c1CCCC2 [compound 1612] | – | class [3]: 3 (Class 3 The value of percent of control at 10^−7 M was more than 60% or the value of IC50 was more than 200 nM.)

Row | Structure (SMILES) | class [2] | also measured
20 | CN(C)c1ccnc(N[C@H]2CC[C@@H](NCc3c[nH]nc3-c3ccc(F)cc3)CC2)n1 [compound 1238] | 3 (Class 3 The value of percent of control at 10^−7 M was more than 60% or the value of IC50 was more than 200 nM.) | –
21 | COc1ccc(C(=O)N[C@H]2CC[C@@H](Nc3nc4c(c(N(C)C)n3)CCCC4)CC2)cc1OC [compound 540] | – | class [6]: 3 (Class 3 The value of percent of control at 10^−7 M was more than 60% or the value of IC50 was more than 200 nM.)
22 | CN(C)c1ccnc(N[C@H]2CC[C@@H](NC(=O)c3cc(-c4ccc(Cl)cc4)oc3C(F)(F)F)CC2)n1 [compound 358] | 3 (Class 3 The value of percent of control at 10^−7 M was more than 60% or the value of IC50 was more than 200 nM.) | –
23 | COC(=O)c1sccc1NC(=S)N[C@H]1CC[C@@H](Nc2nccc(N(C)C)n2)CC1 [compound 2357] | – | class [1]: 3 (Class 3 The value of percent of control at 10^−7 M was more than 60% or the value of IC50 was more than 200 nM.)
24 | CN(C)c1ccnc(N[C@H]2CC[C@@H](CNC(=O)C3C[C@H]3c3ccccc3)CC2)n1 (some centres unmarked) [compound 391] | 3 (Class 3 The value of percent of control at 10^−7 M was more than 60% or the value of IC50 was more than 200 nM.) | –
25 | CCc1cccc(CC)c1NC(=O)NC[C@H]1CC[C@@H](Nc2cc(N(C)C)c3ccccc3n2)CC1 [compound 2372] | – | class [1]: 2 (Class 2: The value of percent of control at 10^−7 M was from 40% to 60% or the value of IC′50 was from 50 nM to 200 nM.)
26 | CN(C)c1nc(N[C@H]2CC[C@@H](CNCCCCCCc3ccccc3)CC2)nc2c1CCCC2 [compound 1500] | 3 (Class 3 The value of percent of control at 10^−7 M was more than 60% or the value of IC50 was more than 200 nM.) | –
27 | Cc1cc2occ(CN[C@H]3CC[C@@H](Nc4nccc(N(C)C)n4)CC3)c(=O)c2cc1Cl [compound 1228] | 3 (Class 3 The value of percent of control at 10^−7 M was more than 60% or the value of IC50 was more than 200 nM.) | –
28 | CCCCOc1ccc(NC(=O)N[C@H]2CC[C@@H](Nc3nc4c(c(N(C)C)n3)CCCC4)CC2)cc1 [compound 1896] | 3 (Class 3 The value of percent of control at 10^−7 M was more than 60% or the value of IC50 was more than 200 nM.) | –
29 | CN(C)c1nc(N[C@H]2CC[C@@H](CNC(=O)c3cccc(Br)c3)CC2)nc2c1CCCC2 [compound 583, 3-bromo-N-[(cis-4-{[4-(dimethylamino)-5,6,7,8-tetrahydroquinazolin-2-yl]amino}cyclohexyl)methyl]benzamide] | – | class [6]: 2 (Class 2: The value of percent of control at 10^−7 M was from 40% to 60% or the value of IC′50 was from 50 nM to 200 nM.)
30 | Cc1cccc(C(=O)NC[C@H]2CC[C@@H](Nc3cc(N(C)C)c4ccccc4n3)CC2)c1C [compound 237] | 3 (Class 3 The value of percent of control at 10^−7 M was more than 60% or the value of IC50 was more than 200 nM.) | –
31 | CN(C)c1cc(N[C@H]2CC[C@@H](NC(=O)c3ccccc3Cc3ccccc3)CC2)nc2ccccc12 [compound 685] | 3 (Class 3 The value of percent of control at 10^−7 M was more than 60% or the value of IC50 was more than 200 nM.) | –
32 | CN(C)c1nc(N[C@H]2CC[C@@H](NC(=O)Nc3ccc(Br)cc3)CC2)nc2c1CCCC2 [compound 1813] | 3 (Class 3 The value of percent of control at 10^−7 M was more than 60% or the value of IC50 was more than 200 nM.) | –
33 | Cc1cccc(N(CCC#N)CCN[C@H]2CC[C@@H](Nc3nc4c(c(N(C)C)n3)CCCC4)CC2)c1 [compound 1489] | 2 (Class 2: The value of percent of control at 10^−7 M was from 40% to 60% or the value of IC′50 was from 50 nM to 200 nM.) | –
34 | CN(C)c1cc(N[C@H]2CC[C@@H](NC(=O)COc3c(F)c(F)c(F)c(F)c3F)CC2)nc2ccccc12 [compound 122] | – | class [5]: 3 (Class 3 The value of percent of control at 10^−7 M was more than 60% or the value of IC50 was more than 200 nM.)
35 | Cc1cnc(N[C@H]2CC[C@@H](CNC(=O)c3cccnc3Oc3ccc(F)c(Cl)c3)C2)nc1N(C)C [compound 3019] | – | class [4]: 2 (Class 2: The value of percent of control at 10^−7 M was from 40% to 60% or the value of IC′50 was from 50 nM to 200 nM.)
36 | Cc1cc(N(C)C)nc(NC[C@H]2CC[C@@H](NC(=O)c3ccccc3)CC2)n1 [compound 2732, N-[cis-4-({[4-(dimethylamino)-6-methylpyrimidin-2-yl]amino}methyl)cyclohexyl]benzamide] | – | class [4]: 3 (Class 3 The value of percent of control at 10^−7 M was more than 60% or the value of IC50 was more than 200 nM.)
37 | CN(C)c1cc(N[C@H]2CC[C@@H](NC(=O)NCc3ccc(Cl)cc3Cl)CC2)nc2ccccc12 [compound 2140] | 3 (Class 3 The value of percent of control at 10^−7 M was more than 60% or the value of IC50 was more than 200 nM.) | –
38 | Cc1ccccc1NC(=O)N[C@H]1CC[C@@H](Nc2cc(N(C)C)c3ccccc3n2)CC1 [compound 2098] | 3 (Class 3 The value of percent of control at 10^−7 M was more than 60% or the value of IC50 was more than 200 nM.) | –
